From patent publication US5889013A, “Pyrimidine acyclonucleoside derivatives” (priority 1994, dated 1999)

Experiments:
HIV-1 (HTLV-IIIB strain) = experiment: Inhibitory activity for HIV-induced cytopathogenicity (MT-4 cells, MTT method); format: cell-based; settings: Human immunodeficiency virus 1, IIIB, MT4, 144 h, read-out: 50% inhibitory concentration of HIV infection
Description: (§1) In RPMI 1640 culture medium supplemented with 10% heat-inactivated fetal bovine serum, 2 mM of L-glutamine, 100 U/mL of penicillin G and 100 μg/mL of streptomycin, MT-4 cells (HTLV-1 transformed T4-cell line) at a concentration of 1×10^4 /well in a flat-bottom, microtiter plate were infected with 500 TCID50 of HIV-1 (HTLV-IIIB strain). Immediately after virus infection, sample serially diluted with culture medium from stock solution prepared in dimethyl sulfoxide was added to each well in quadriplicate. After 6 days incubation at 37° C., the viability of mock and HIV-infected cells was determined by the 3-(4,5-dimethylthiazol-2-yl)-2,5-diphenyltetrazolium bromide (MTT) method. And also, the cytotoxicity of sample to MT-4 cells not infected with HIV was assessed in parallel with its antiviral activity under the same way as above.

[1] = Cytotoxicity to MT-4 cells not infected with HIV (MTT method); format: cell-based; settings: human; MT-4 cells not infected with HIV, 6 days, 37° C., MTT; read-out: 50% cytotoxic concentration to MT-4 cells
Description: as §1

Compound	IC50 (HIV-1 (HTLV-IIIB strain))	CC50 at 144 h [1]
CCc1c([Se]c2cccc(C)c2)n(COCCO)c(=S)[nH]c1=O [Compound 2, 5-ethyl-1-[(2-hydroxyethoxy)methyl]-6-[(3-methylphenyl)selenenyl]-2-thiouracil]	40 nM	32 µM
CCc1c([Se]c2cc(C)cc(C)c2)n(COCCO)c(=S)[nH]c1=O [Compound 3, 6-[(3,5-dimethylphenyl)selenenyl]-5-ethyl-1-[(2-hydroxyethoxy)methyl]-2-thiouracil]	30 nM	32.5 µM
Cc1cccc([Se]c2c(C(C)C)c(=O)[nH]c(=S)n2COCCO)c1 [Compound 5, 1-[(2-hydroxyethoxy)methyl]-5-isopropyl-6-[(3-methylphenyl)-selenenyl]-2-thiouracil]	38 nM	31.7 µM
Cc1cc(C)cc([Se]c2c(C(C)C)c(=O)[nH]c(=S)n2COCCO)c1 [Compound 6, 6-[(3,5-dimethylphenyl)selenenyl]-1-[(2-hydroxyethoxy)methyl]-5-isopropyl-2-thiouracil]	8 nM	32.4 µM
CCc1c([Se]c2cc(C)cc(C)c2)n(COCCO)c(=O)[nH]c1=O [Compound 9, 6-[(3,5-dimethylphenyl)selenenyl]-5-ethyl-1-[(2-hydroxyethoxy)-methyl]uracil]	15 nM	34.5 µM
Cc1cccc([Se]c2c(C(C)C)c(=O)[nH]c(=O)n2COCCO)c1 [Compound 11, 1-[(2-hydroxyethoxy)methyl]-5-isopropyl-6-[(3-methylphenyl)-selenenyl]uracil]	15 nM	30.5 µM
Cc1cc(C)cc([Se]c2c(C(C)C)c(=O)[nH]c(=O)n2COCCO)c1 [Compound 12, 6-[(3,5-dimethylphenyl)selenenyl]-1-[(2-hydroxyethoxy)methyl]-5-isopropyluracil]	1.9 nM	29.1 µM
CCOCn1c([Se]c2ccccc2)c(CC)c(=O)[nH]c1=S [Compound 15, 1-(ethoxymethyl)-5-ethyl-6-(phenylselenenyl)-2-thiouracil]	24 nM	26.1 µM
CCOCn1c([Se]c2cccc(C)c2)c(CC)c(=O)[nH]c1=S [Compound 16, 1-(ethoxymethyl)-5-ethyl-6-[(3-methylphenyl)selenenyl]-2-thiouracil]	8 nM	24.8 µM
CCOCn1c([Se]c2cc(C)cc(C)c2)c(CC)c(=O)[nH]c1=S [Compound 17, 6-[(3,5-dimethylphenyl)selenenyl]-1-(ethoxymethyl)-5-ethyl-2-thiouracil]	8 nM	28.8 µM
CCOCn1c([Se]c2cc(F)cc(F)c2)c(CC)c(=O)[nH]c1=S [Compound 18, 6-[(3,5-difluorophenyl)selenenyl]-1-(ethoxymethyl)-5-ethyl-2-thiouracil]	14 nM	7.8 µM
CCc1c([Se]c2ccccc2)n(COCc2ccccc2)c(=S)[nH]c1=O [Compound 19, 1-[(benzyloxy)methyl)-5-ethyl-6-(phenylselenenyl)-2-thiouracil]	4 nM	25.1 µM
CCc1c([Se]c2cccc(C)c2)n(COCc2ccccc2)c(=S)[nH]c1=O [Compound 20, 1-[(benzyloxy)methyl]-5-ethyl-6-[(3-methylphenyl)selenenyl]-2-thiouracil]	0.8 nM	43.4 µM
CCc1c([Se]c2cc(C)cc(C)c2)n(COCc2ccccc2)c(=S)[nH]c1=O [Compound 21, 1-[(benzyloxy)methyl]-6-[(3,5-dimethylphenyl)selenenyl]-5-ethyl-2-thiouracil]	1.7 nM	24.1 µM
CCOCn1c([Se]c2ccccc2)c(C(C)C)c(=O)[nH]c1=S [Compound 22, 1-(ethoxymethyl)-5-isopropyl-6-(phenylselenenyl)-2-thiouracil]	1.5 nM	30.1 µM
CCOCn1c([Se]c2cccc(C)c2)c(C(C)C)c(=O)[nH]c1=S [Compound 23, 1-(ethoxymethyl)-5-isopropyl-6-[(3-methylphenyl)selenenyl]-2-thiouracil]	3.6 nM	30.6 µM
CCOCn1c([Se]c2cc(C)cc(C)c2)c(C(C)C)c(=O)[nH]c1=S [Compound 24, 6-[(3,5-dimethylphenyl)selenenyl]-1-(ethoxymethyl)-5-isopropyl-2-thiouracil]	1.6 nM	31.7 µM
CCOCn1c([Se]c2cc(F)cc(F)c2)c(C(C)C)c(=O)[nH]c1=S [Compound 25, 6-[(3,5-difluorophenyl)selenenyl]-1-(ethoxymethyl)-5-isopropyl-2-thiouracil]	27 nM	19.7 µM
CC(C)c1c([Se]c2ccccc2)n(COCc2ccccc2)c(=S)[nH]c1=O [Compound 26, 1-[(benzyloxy)methyl]-5-isopropyl-6-(phenylselenenyl)-2-thiouracil]	0.7 nM	30.2 µM

Compound	IC50 (HIV-1 (HTLV-IIIB strain))	CC50 at 144 h [1]
Cc1cccc([Se]c2c(C(C)C)c(=O)[nH]c(=S)n2COCc2ccccc2)c1 [Compound 27, 1-[(benzyloxy)methyl]-5-isopropyl-6-[(3-methylphenyl)selenenyl]-2-thiouracil]	1.1 nM	30 µM
Cc1cc(C)cc([Se]c2c(C(C)C)c(=O)[nH]c(=S)n2COCc2ccccc2)c1 [Compound 28, 1-[(benzyloxy)methyl]-6-[(3,5-dimethylphenyl)selenenyl]-5-isopropyl-2-thiouracil]	5.4 nM	30.9 µM
CCOCn1c([Se]c2cccc(C)c2)c(CC)c(=O)[nH]c1=O [Compound 29, 1-(ethoxymethyl)-5-ethyl-6-[(3-methylphenyl)selenenyl]uracil]	4 nM	32.1 µM
CCOCn1c([Se]c2cc(C)cc(C)c2)c(CC)c(=O)[nH]c1=O [Compound 30, 6-[(3,5-dimethylphenyl)selenenyl]-1-(ethoxymethyl)-5-etlyluracil]	0.6 nM	28.9 µM
CCOCn1c([Se]c2cc(F)cc(F)c2)c(CC)c(=O)[nH]c1=O [Compound 32, 6-[(3,5-difluorophenyl)selenenyl]-1-(ethoxymethyl)-5-ethyluracil]	6 nM	30.6 µM
CCc1c([Se]c2cccc(C)c2)n(COCc2ccccc2)c(=O)[nH]c1=O [Compound 37, 1-[(benzyloxy)methyl]-5-ethyl-6-[(3-methylphenyl)selenenyl]uracil]	0.21 nM	28.8 µM
CCc1c([Se]c2cc(C)cc(C)c2)n(COCc2ccccc2)c(=O)[nH]c1=O [Compound 38, 1-[(benzyloxy)methyl]-6-[(3,5-dimethylphenyl)selenenyl]-5-ethyluracil]	0.08 nM	31.7 µM
CCOCn1c([Se]c2ccccc2)c(C(C)C)c(=O)[nH]c1=O [Compound 48, 1-(ethoxymethyl)-5-isopropyl-6-(phenylselenenyl)uracil]	4.2 nM	32.5 µM
CCOCn1c([Se]c2cccc(C)c2)c(C(C)C)c(=O)[nH]c1=O [Compound 49, 1-(ethoxymethyl)-5-isopropyl-6-[(3-methylphenyl)selenenyl]uracil]	0.7 nM	29.2 µM
CCOCn1c([Se]c2cc(C)cc(C)c2)c(C(C)C)c(=O)[nH]c1=O [Compound 50, 6-[(3,5-dimethylphenyl)selenenyl]-1-(ethoxymethyl)-5-isopropyluracil]	0.07 nM	29.2 µM
CCOCn1c([Se]c2cc(F)cc(F)c2)c(C(C)C)c(=O)[nH]c1=O [Compound 51, 6-[(3,5-difluorophenyl)selenenyl]-1-(ethoxymethyl)-5-isopropyluracil]	1.2 nM	27.5 µM
CC(C)c1c([Se]c2ccccc2)n(COCc2ccccc2)c(=O)[nH]c1=O [Compound 52, 1-[(benzyloxy)methyl]-5-isopropyl-6-(phenylselenenyl)uracil]	0.1 nM	29.4 µM
Cc1cccc([Se]c2c(C(C)C)c(=O)[nH]c(=O)n2COCc2ccccc2)c1 [Compound 53, 1-[(benzyloxy)methyl]-5-isopropyl-6-[(3-methylphenyl)selenenyl]uracil]	0.07 nM	30.8 µM
Cc1cc(C)cc([Se]c2c(C(C)C)c(=O)[nH]c(=O)n2COCc2ccccc2)c1 [Compound 54, 1-[(benzyloxy)methyl]-6-[(3,5-dimethylphenyl)selenenyl]-5-isopropyluracil]	0.021 nM	30.2 µM
CCCCn1c([Se]c2ccccc2)c(CC)c(=O)[nH]c1=O [Compound 64, 1-butyl-5-ethyl-6-(phenylselenenyl)uracil]	40 nM	27.3 µM
CCCCn1c([Se]c2cc(C)cc(C)c2)c(CC)c(=O)[nH]c1=O [Compound 65, 1-butyl-6-[(3,5-dimethylphenyl)selenenyl]-5-ethyluracil]	3 nM	27.9 µM
CCc1c([Se]c2ccccc2)n(CCCc2ccccc2)c(=O)[nH]c1=O [Compound 73, 5-ethyl-1-(3-phenylpropyl)-6-(phenylselenenyl)uracil]	3 nM	26.1 µM
CCc1c([Se]c2cc(C)cc(C)c2)n(CCCc2ccccc2)c(=O)[nH]c1=O [Compound 74, 6-[(3,5-dimethylphenyl)selenenyl]-5-ethyl-1-(3-phenylpropyl)-uracil]	8 nM	27.7 µM
CCCCn1c([Se]c2ccccc2)c(C(C)C)c(=O)[nH]c1=O [Compound 81, 1-butyl-5-isopropyl-6-(phenylselenenyl)uracil]	2 nM	27.1 µM
